Where two headings read alike, the source gives them in different places.
Key:
[1] = tested on: PCP-induced hyperactivity; assay: Inhibition of PCP-induced locomotor hyperactivity; format: in vivo, BALB/c mice; conditions: for inhibition of PCP-induced hyperactivity: 100 mg/kg i.p. pretreatment, summed activity over 90 min
Experimental: (§1) Behavioral studies were performed using BALB/c mice (25 g) of either sex. Rodent activity was monitored using a photocell-based activity meter (Columbus Instruments Auto-Track System, Columbus, Ohio). Animals were placed in test cages and allowed to accommodate overnight. […] 30 min. after pretreatment, animals were injected with either PCP (5 mg/kg i.p.) or amphetamine (5 mg/kg s.c.). Activity was then monitored for an additional 90 minutes. For statistical analyses, summed activity over the 90 min. following PCP/amphetamine injection was used as a measure of drug-induced hyperactivity.

[2] = molecular target: T1, GLYT1-mediated synaptosomal glycine transport (Rattus norvegicus, UniProt P28572); assay: Inhibition of [3H]glycine uptake in P2 synaptosomal fractions; format: biochemical, Sprague-Dawley rats; conditions: 100 μg/ml
T1 construct: Synaptosomal P2 fractions were prepared from cerebral cortex+hippocampus of Sprague-Dawley rats; from tissue; host or cells: rat cerebral cortex + hippocampus, P2 synaptosomal fraction
T1 sequence (P28572 1-638): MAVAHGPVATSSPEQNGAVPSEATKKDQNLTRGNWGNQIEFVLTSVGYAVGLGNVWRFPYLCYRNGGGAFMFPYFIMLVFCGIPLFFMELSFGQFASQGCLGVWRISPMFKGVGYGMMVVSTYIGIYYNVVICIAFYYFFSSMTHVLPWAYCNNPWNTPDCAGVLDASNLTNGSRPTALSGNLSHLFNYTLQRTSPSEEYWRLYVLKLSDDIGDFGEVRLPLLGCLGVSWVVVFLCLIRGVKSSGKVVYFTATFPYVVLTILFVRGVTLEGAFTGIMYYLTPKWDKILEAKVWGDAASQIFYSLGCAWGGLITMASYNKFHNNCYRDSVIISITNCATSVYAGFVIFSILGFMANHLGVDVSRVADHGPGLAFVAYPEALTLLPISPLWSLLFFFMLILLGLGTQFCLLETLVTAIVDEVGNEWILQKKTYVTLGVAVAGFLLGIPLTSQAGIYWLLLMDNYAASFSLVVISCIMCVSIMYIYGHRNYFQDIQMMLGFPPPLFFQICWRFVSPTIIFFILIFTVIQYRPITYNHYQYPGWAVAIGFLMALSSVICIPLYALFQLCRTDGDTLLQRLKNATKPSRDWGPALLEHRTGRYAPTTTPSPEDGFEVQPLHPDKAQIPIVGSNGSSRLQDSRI
Experimental: Synaptosomal P2 fractions were prepared from cerebral cortex+hippocampus of Sprague-Dawley rats (200-250 g). Brain tissue was homogenized in 0.32 M sucrose in Tris-HCl buffer (pH 7.4), and centrifuged at 1,000×g for 10 min at 4° C. in a Sorvall 5C centrifuge. The supernatant was then centrifuged at 14,000×g for 10 min and the pellet resuspended in artificial CSF having the following composition (mM): NaCl, 125; KCl, 3; MgSO4, 1.2; CaCl2, 1.2; NaH2PO4, 1; NaHCO3, 22; glucose, 10. Homogenate was aerated with 95% O2/5% CO2 until use. 1 ml aliquots of homogenate were preincubated with specific concentrations of glycineamide derivatives, following which incubation was initiated by the addition of 10 μl of 10 μM [^3H]glycine (DuPont/NEN or Sigma, spec. act.≈45 Ci/mmol) to obtain a final concentration of 100 nM. Nonspecific binding was determined in the presence of 10 mM sarcosine. Following 5 min, incubation was terminated by filtration under reduced pressure using a Brandel 24-well cell harvester and Whatman GF-B filters. Radioactivity was determined by scintillation counter with approximate efficiency of 50%.

[3] = Double blind, placebo-controlled crossover study of D-cycloserine in schizophrenia (PANSS); format: in vivo, human; conditions: D-cycloserine 50 mg/day, 6 weeks
[4] = tested on: PCP-induced hyperactivity; conditions: cited from earlier work
[5] = tested on: amphetamine-induced hyperactivity; assay: Effect on amphetamine-induced locomotor hyperactivity; format: in vivo, BALB/c mice; conditions: GDA 50 mg/kg i.p.; amphetamine 5 mg/kg
Experimental: as §1

Molecule: CCCCCCCCCCCCCNC(=O)CN [G13A, glycyltriscadecylamide]
- inhibition of PCP-induced hyperactivity ([1]; PCP 5 mg/kg i.p.): Significant reductions
- effect on GLYT1-mediated transport at single fixed concentration [2]: significant inhibition

Molecule: CCCCCCCCCCCNC(=O)CN [G11A, glycylundecylamide]
- effect on GLYT1-mediated transport at single fixed concentration [2]: significant inhibition

Molecule: N[C@@H]1CONC1=O [D-cycloserine]
- change in general psychopathology scores (PANSS) [3]: did not change significantly
- change in positive symptoms (PANSS) [3]: did not change significantly
- mean decrease in negative symptoms [3]: 9.2%
- reduction in negative symptoms (PANSS) ([3]; mean±SD): 3.6±3.7 point

Molecule: CCCCCCCCCCCCNC(=O)CN [GDA, glycyldodecylamide]
- potency in reversing PCP-induced hyperactivity relative to glycine (Toth et al., 1986) ([4]; early preclinical studies): significantly more potent than glycine
- doses inhibiting PCP-induced hyperactivity (prior studies) ([4]; i.p., prior studies): 50 to 200 mg/kg
- PCP-induced hyperactivity, % of control (PCP alone) levels ([1]; 50 mg/kg, PCP 5 mg/kg i.p.): below 70 % of control
- inhibition of PCP-induced hyperactivity ([1]; PCP 5 mg/kg i.p.): Significant reductions
- PCP-induced hyperactivity, % of control (PCP alone) levels ([1]; 100 mg/kg, PCP 5 mg/kg i.p.): below 50 % of control
- effect on hyperactivity induced by PCP ([1]; GDA 50 mg/kg i.p., PCP 5 mg/kg i.p.): significantly reduced
- effect on basal activity ([1]; GDA pretreatment 50 mg/kg i.p.): did not significantly affect
- effect on GLYT1-mediated transport at single fixed concentration [2]: significant inhibition
- effect on hyperactivity induced by amphetamine [5]: not significantly altered

Molecule: glycylhexylamide [G6A]
- inhibition of PCP-induced hyperactivity (early study, Toth et al., 1986) ([4]; literature): not to significantly inhibit
- inhibition of PCP-induced hyperactivity ([1]; PCP 5 mg/kg i.p.): did not significantly inhibit
- effect on GLYT1-mediated transport at single fixed concentration [2]: significant potentiation

Molecule: NCC(=O)O [glycine]
- change in positive symptoms (PANSS) (beginning to end of glycine treatment): did not change significantly
- positive symptoms score at end of treatment (end of glycine treatment (beginning 25.7±7.0), mean±SD): 22.0±4.0 points
- general psychopathology score at end of treatment (end of glycine treatment (from 56.0±19.4), mean±SD): 43.0±13.8 points
- decrease in general psychopathology symptoms (glycine 0.8 g/kg/day, 6 weeks): 23.2%
- mean reduction in negative symptoms (glycine 0.8 g/kg/day, 6 weeks): 28.5%
- reduction in negative symptoms (PANSS) (glycine 0.8 g/kg/day, 6 weeks, 7 neuroleptic-resistant schizophrenia subjects, mean±SD): 11.3±3.6 point
- change in general psychopathology (PANSS) (glycine 0.8 g/kg/day, 6 weeks, mean±SD): 13.0±7.7 point
- degree of reduction in negative symptoms relative to D-cycloserine treatment (same subjects, change scores compared across the two trials): 3 fold

Molecule: CCCCCCCCCCNC(=O)CN [G10A, glycyldecylamide]
- inhibition of PCP-induced hyperactivity ([1]; PCP 5 mg/kg i.p.): Significant reductions
- effect on GLYT1-mediated transport at single fixed concentration [2]: significant inhibition

Molecule: CCCCCCCCNC(=O)CN [G8A, glycyloctylamide]
- effect on GLYT1-mediated transport at single fixed concentration [2]: no significant effect

Source: patent US6355681B2, “Glycine substitutes and precursors for treating a psychosis” (Glytech, Inc., priority 1995, dated 2002)
